Values of other authors in EP3639895A1, “METHOD OF REDUCING PERSPIRATION” (priority 2018, dated 2020).

Test system: Staphylococcus epidermidis
Settings: 80% or greater reduction in growth of inoculum over 16 to 24 hours at 37°C

| SMILES | minimum inhibitory concentration (MIC) |
| --- | --- |
| Oc1cc(Cl)ccc1Oc1ccc(Cl)cc1Cl [triclosan, 2',4,4'-trichloro,2-hydroxy-diphenyl ether] | 0.01 to 10 µg/mL |
| CC(C)=CCCC(C)=CCCC(C)=CCO [farnesol, 3,7,11-trimethyldodeca-2,6,10-trienol] | ca. 25 µg.ml^-1 |
| CCO [ethanol] | greater than 1 mg.ml^-1 |
